≈ marks a conversion by molar mass, not a printed value. Read-outs that look alike come from different tables or passages of the source.
Legend:
stored cattle waste [1] = experiment: fermentation of stored cattle waste in open wide-mouthed jars (VFA, butyrate); type: cell-based; details: for production of short-chain volatile fatty acids: 13.3 mM individually, 56 days, versus combination of the two oils (6.7 mM each); for concentration that suppressed essentially all fermentation activity: cattle waste slurry of feces, urine and water (50:35:15)
Method: Waste was collected and processed as in Example 1. The waste slurry was divided into 1-liter aliquots and poured into wide-mouth (10 cm) jars (17 cm tall, 13.5 cm diameter, 1.6-liters). The plant oils (carvacrol, thymol and α-pinene) were added to the slurry without stirring or mixing. Plastic lids provided with the jars were used to cover approximately 90% of the jar opening to prevent moisture loss over the 56-day experimental period. A wide mouth pipette was inserted into the slurry from top to bottom at which time slurry contents were simultaneously withdrawn. Total VFA production and butyrate production were measured as described in Example 1.

stored swine waste [2] = experiment: fermentation of stored swine waste in anoxic flasks (gas, VFA, L-lactate, pH); type: cell-based; details: for methane detected: 13.3 mM, after 20 days; for gas production / production of propionate / production of valerate, isovalerate, isobutyrate and cresol: carvacrol or thymol at 13.3 or 16.75 mM, or combination to equal 16.75 mM; for lactate accumulation: oil added to swine waste; for concentration required to suppress most fermentation activity: swine waste slurry, same ratio (50:35:15)
Method: Swine waste was processed similarly to the method described in Example 1. Fecal waste was randomly collected within 15 min of being excreted from animals fed a finishing diet of 85% corn and 11% soybean meal. Swine urine was collected from catheterized animals. Feces, urine, and distilled water in the ratio 50:35:15 were blended (Waring Inc., New Hartford, Conn.) for 1 min. Four replicate samples were obtained from this slurry and analyzed for various parameters and were considered as time 0. The waste slurry was divided into 500 ml aliquots and antimicrobial plant oils were added directly at the desired concentration, with one exception, in which carvacrol was dissolved 1:1 v:v in 95% ethanol, or 2 ml carvacrol/ethanol addition in these 500 ml slurries. The slurry was blended 1 min to provide a homogenous mixing of the antimicrobial oils and poured into 1-liter Erlenmeyer flasks, which were gassed with nitrogen (also after each sampling), sealed with a rubber stopper and left stationary at ambient temperature (25° C.). Treatments were in duplicate, and the contents of the flasks were gently swirled before being sampled at the days indicated in FIGS. 3-5. Gas volume and composition were analyzed in these flasks (anoxic slurry).
Head space gas was measured by displacement of a water-lubricated glass piston in a 50 ml syringe [Miller, T. L. et al. (1974), Appl Environ 27:985-987]. A 20-gauge needle with a Leurlok was inserted through the stopper, and a three-way valve was attached to the needle to allow gas volume to be periodically determined. Methane and hydrogen were analyzed as previously described [Varel, V. H. et al. (2000), Curr Microbiol 40:392-397].
(§1) A 15-ml waste sample was collected from each flask. The sample was mixed with 15 ml of 0.5 M H2SO4, centrifuged at 2000×g for 20 min at 4° C., and stored at −20° C. until analyzed [Varel, V. H. et al. (1999), J Anim Sci 77:1162-1168]. L-Lactate concentrations were determined with a membrane-immobilized system involving lactate oxidase (Model 27, Yellow Springs Instrument Co., Yellow Springs, Ohio, USA). Short-chain volatile fatty acids (VFAs; acetate, propionate, butyrate, valerate, isobutyrate, isovalerate) and aromatic compounds (cresol, indole, skatole, 4-ethylphenol, phenol) were determined in an aliquot from the original acidified sample. After thawing, the sample was centrifuged at 5° C., 10,000×g for 5 min. A 0.5 ml aliquot of the supernatant was combined with an internal standard, ethyl butyrate (0.25 mM final concentration), the sample was acidified with 0.4 ml of 3 M HC1, 0.8 ml ethyl ether was added, the sample was shaken vigorously for 1 min, and centrifuged at 5° C., 16,000×g for 1 min, and the ether phase was analyzed. To determine carvacrol and thymol concentrations, an aliquot of the original acidified sample which was not centrifuged, was treated as indicated above and extracted with ether twice. […] Aromatic, VFAs, thymol and carvacrol were analyzed with a Hewlett Packard 6890 gas chromatograph equipped with a flame ionization detector and a Hewlett Packard 5973 mass selective detector. Compounds were separated on a 30 m×0.32 mm diameter (0.5 μm film thickness) Innowax PEG column using the following program parameters: flow rate was 1.9 ml min^−1, initial temperature was 140° C., initial time was 3 min with a temperature ramp of 7.5° C. min^−1, with a final temperature of 230° C. for 4 min. Injector and detector temperatures were 250° C. Data were analyzed as a split-plot in time with the GLM procedure of (SAS).

[3] = recovery of added oil from liquid and solid fractions of swine waste, sealed flasks; type: physicochemical
Method: Swine waste was processed similarly to the method described in Example 1. Fecal waste was randomly collected within 15 min of being excreted from animals fed a finishing diet of 85% corn and 11% soybean meal. Swine urine was collected from catheterized animals. Feces, urine, and distilled water in the ratio 50:35:15 were blended (Waring Inc., New Hartford, Conn.) for 1 min. Four replicate samples were obtained from this slurry and analyzed for various parameters and were considered as time 0. […] Gas volume and composition were analyzed in these flasks (anoxic slurry).
A 15-ml waste sample was collected from each flask. The sample was mixed with 15 ml of 0.5 M H2SO4, centrifuged at 2000×g for 20 min at 4° C., and stored at −20° C. until analyzed [Varel, V. H. et al. (1999), J Anim Sci 77:1162-1168]. L-Lactate concentrations were determined with a membrane-immobilized system involving lactate oxidase (Model 27, Yellow Springs Instrument Co., Yellow Springs, Ohio, USA). Short-chain volatile fatty acids (VFAs; acetate, propionate, butyrate, valerate, isobutyrate, isovalerate) and aromatic compounds (cresol, indole, skatole, 4-ethylphenol, phenol) were determined in an aliquot from the original acidified sample. […] Data were analyzed as a split-plot in time with the GLM procedure of (SAS).

[4] = tested on: total culturable anaerobic bacteria; experiment: total culturable anaerobic bacteria in swine waste, open jars; type: cell-based; details: 13.3 mM and 20 mM; within 2 days versus controls (P<0.05); sustained for 28 days
Method: (§2) Swine waste was collected and processed into a slurry as in Example 3. As in Example 2, the slurry was added to wide-mouth (10 cm) jars (17 cm tall, 13.5 cm in diameter, 1.6-liter volume) with the test antimicrobial additives, and plastic lids were placed to cover approximately 90% of the jar opening to prevent moisture loss over the experimental period. The sampling procedure was similar to that described above in Example 3, except no stirring or mixing occurred before the contents were sampled, and treatments were in triplicate.
(§3) Fecal coliforms were enumerated with 3 M Petrifilm Escherichia coli coliform count plates (3 M Microbiology Products, St. Paul, Minn.). Both of the carvacrol treatments reduced (P<0.05) the number of viable anaerobic bacteria in the waste within 2 days when compared to the controls (Table 2). This effect was sustained for 28 days. The initial decrease in the concentrations of anaerobic bacteria from day 0 to 2 in the control is presumably because VFAs increase in this batch system and become lethal to a select population of organisms.

fecal coliforms = fecal coliforms in swine waste, open jars; type: cell-based
Method: as §2, §3

stored swine waste [5] = experiment: VFA production from swine waste in open jars; type: cell-based
Method: as §1, with “analyzed.” for “analyzed. To determine carvacrol and thymol concentrations, an aliquot of the original acidified sample which was not centrifuged, was treated as indicated above and extracted with ether twice.”, “Compounds were separated on a 30 m×0.32 mm diameter (0.5 μm film thickness) Innowax PEG column using the following program parameters: flow rate was 1.9 ml min^−1, initial temperature was 140° C., initial time was 3 min with a temperature ramp of 7.5° C. min^−1, with a final temperature of 230° C. for 4 min. Injector and detector temperatures were 250° C.” left out, “(SAS). […]” for “(SAS).”

E. coli O157:H7 = details: cited from earlier work; for concentration that will kill E. coli O157:H7: Kim et al.; for minimum inhibitory concentration: pure culture system, Helander et al.
Salmonella typhimurium = details: pure culture system; Helander et al.; cited from earlier work
stored cattle waste [6] = experiment: VFA and L-lactate production from cattle waste in anoxic flasks, eugenol versus thymol; type: cell-based; details: for L-lactate production: cattle waste, eugenol at all concentrations evaluated
Method: Waste was collected and processed as in Example 1. The waste slurry was divided into 500-ml aliquots and eugenol or thymol were added directly at the desired concentration. The slurry was blended 1 min to provide a homogeneous mixing of the antimicrobial oils and poured into a 1-liter Erlenmeyer flask, which was sealed with a rubber stopper and left stationary at ambient temperature (25° C.). Treatments were in triplicate, and the contents of the flask were gently swirled before being sampled at the times indicated. Short-chain volatile fatty acids and L-lactate in the flasks were determined as described in Example 1. […] This is a desirable effect in some cases because it rapidly lowers the pH which contributes to inhibiting the overall fermentation of the wastes, and more ammonia nitrogen will be retained in the wastes.

Row | Compound | production of short-chain volatile fatty acids (stored cattle waste [1]) | concentration that suppressed essentially all fermentation activity (stored cattle waste [1]) [mM] | methane detected (stored swine waste [2]) | gas production (stored swine waste [2]) | production of propionate (stored swine waste [2]) | production of valerate, isovalerate, isobutyrate and cresol (stored swine waste [2]) | lactate accumulation (stored swine waste [2]) | concentration required to suppress most fermentation activity (stored swine waste [2]) [mM] | minimum inhibitory concentration (E. coli O157:H7) [µM] | minimum inhibitory concentration (Salmonella typhimurium) [µM] | L-lactate production (stored cattle waste [6]) | other results
1 | Cc1ccc(C(C)C)cc1O [carvacrol] | equally or slightly better | 13.3 | Trace amounts | essentially stopped most gas production | inhibited | prevented any production | accumulated | 16.75 | 3000 (≈ 451 µg/mL) | 1000 (≈ 150 µg/mL) | – | recoveries compared with thymol ([3]; sealed flasks): similar; number of viable anaerobic bacteria [4]: reduced; fecal coliforms (fecal coliforms; 13.3 mM, at 14 days): none were detected; fecal coliforms (fecal coliforms; 13.3 mM, within 2 days (P<0.01)): reduced; fecal coliforms (fecal coliforms; 20 mM, after 2 days): No fecal coliforms were detected; effect of dissolving in ethanol on ability to inhibit VFA production (stored swine waste [5]; dissolved in ethanol before addition (P>0.05)): no effect; production of VFAs (stored swine waste [5]; three concentrations (P<0.01), open jars): inhibited the production of VFAs; concentration that will kill E. coli O157:H7 (E. coli O157:H7): 500 µg/mL; concentration that will kill E. coli O157:H7 (E. coli O157:H7; value in brackets): 3.3 mM
2 | C=CCc1ccc(O)c(OC)c1 [eugenol] | – | – | – | – | – | – | – | – | – | – | stimulates L-lactate production | control of total VFA production compared to 2000 ppm (13.3 mM) thymol (stored cattle waste [6]; 2000 or 2500 ppm (13.3 or 16 mM), 42-day period): equally or more effective; inhibition of VFA production, dependence (stored cattle waste [6]; various concentrations): concentration dependent
3 | Cc1ccc(C(C)C)c(O)c1 [thymol] | equally or slightly better | 13.3 | Trace amounts | essentially stopped most gas production | inhibited | prevented any production | accumulated | 16.75 | 3000 (≈ 451 µg/mL) | 1000 (≈ 150 µg/mL) | inhibits production of L-lactate | thymol recovered from the liquid or supernatant fraction ([3]; % of added, swine waste): less than 25%

Source: patent US6902726B1, “Reduction of odor gases from waste using plant-derived oils” (The United States of America as represented by the …, priority 2001, dated 2005)
